Data set [1] deals with chronic myeloid leukemia cell line K562. Briefly: Cytotoxicity test of conjugate LDC10B. The note with it: K562, Incubation Time 30 min. Type of data set: cell-based. As for the experimental part:
(§1) Culture medium: RPMI 1640 Medium, no folic acid
(§2) 1) human nasopharyngeal cancer cell line KB, melanoma cell line A375, human lung cancer cell H1299, chronic myeloid leukemia cell line K562, human lung cancer cell H460, ovarian cancer cell SKOV3, breast cancer cell line HCC1954, human gastric cancer cell N87, and human breast cancer cell SK-BR-3 were incubated at 37° C., 5% CO2 in RPMI 1640 medium containing 10% fetal bovine serum, the cells were passaged every 2-3 days.
(§3) 2) human nasopharyngeal cancer cell line KB, melanoma cell line A375, human lung cancer cell H1299, chronic myeloid leukemia cell line K562, human lung cancer cell H460, ovarian cancer cell SKOV3, breast cancer cell line HCC1954, human gastric cancer cell N87, and human breast cancer cell SK-BR-3 were plated at 1×10^3 cells per well (96-well plate) and incubated for 8-12 h at 37° C., 5% CO2.
(§4) 3) Stock solutions of LDC conjugates or controls were prepared in PBS solution. 100 μL/well of serially diluted LDC conjugates or controls was added to the test cells in the plates and incubated for 15-30 min at 37° C., 5% CO2. The culture medium in the wells was then removed by aspiration and the test cells were incubated in fresh culture medium without conjugates (150 μL/well) for 2-3 days at 37° C., 5% CO2.
(§5) 4) CellTiter 96® Aqueous One Solution Cell Proliferation Assay (Promega) was added to each well to measure the amount of […] cells, and each plate was incubated in an incubator for 1 h at 37° C., 5% CO2.
(§6) 5) Each plate was read at 490 nm on a microplate reader, and the cell survivals were compared for test cells with or without the treatment of LDC conjugates. The LDC drug concentrations that are required for 50% cell death (IC50 values) were determined.

Data set [2] relates to human breast cancer cell SK-BR-3. Put plainly: Cytotoxicity test of conjugate LDC10B. The note with it: SK-BR-3, Incubation Time 30 min. The format is cell-based. The procedure:
as §1, §2, §3, §4, §5, §6

Data set [3] has as its system human gastric cancer cell N87. Briefly: Cytotoxicity test of conjugate LDC10B. The format is cell-based. The note with it: N87, Incubation Time 30 min. As for the experimental part: as §1, §2, §3, §4, §5, §6
Data set [4] has as its system human lung cancer cell H1299. Briefly: Cytotoxicity test of conjugate LDC10B. The format is cell-based. The note with it: H1299, Incubation Time 30 min. The procedure: as §1, §2, §3, §4, §5, §6
The subject of data set [5] is human lung cancer cell H460. Put plainly: Cytotoxicity test of conjugate LDC10B. Type of data set: cell-based. The note with it: H460, Incubation Time 30 min. The procedure: as §1, §2, §3, §4, §5, §6
The subject of data set [6] is human nasopharyngeal cancer cell line KB. Briefly: Cytotoxicity test of conjugate LDC10B. The note with it: Incubation Time 15 min. Type of data set: cell-based. As for the experimental part:
as §1, §2, §3, §4, §5, §6

In another data set the test system is melanoma cell line A375. Put plainly: Cytotoxicity test of conjugate LDC10B. Type of data set: cell-based. The note with it: A375, Incubation Time 15 min. The procedure: as §1, §2, §3, §4, §5, §6
Data set [7] deals with breast cancer cell line HCC1954. Briefly: Cytotoxicity test of conjugate LDC10B. Type of data set: cell-based, human. The note with it: HCC1954, Incubation Time 30 min. The procedure: as §1, §2, §3, §4, §5, §6
Data set [8] has as its system ovarian cancer cell SKOV3. Put plainly: Cytotoxicity test of conjugate LDC10B. The note with it: SKOV3, Incubation Time 30 min. The format is cell-based, human. The procedure: as §1, §2, §3, §4, §5, §6
In data set [9] the test system is human lung cancer cell H1299. Put plainly: Cytotoxicity test of conjugate LDC10H. Type of data set: cell-based. The note with it: H1299, incubated 15-30 min, then 2-3 days. As for the experimental part:
as §1
(§7) 1) human lung cancer cell H1299, ovarian cancer cell SKOV3, breast cancer cell line HCC1954, and human lung cancer cell H460 were incubated at 37° C., 5% CO2 in RPMI 1640 medium containing 10% fetal bovine serum, the cells were passaged every 2-3 days.
(§8) 2) human lung cancer cell H1299, ovarian cancer cell SKOV3, breast cancer cell line HCC1954, and human lung cancer cell H460 were plated at 1×10^3 cells per well (96-well plate) and incubated for 8-12 h at 37° C., 5% CO2.
(§9) 3) Stock solutions of LDC conjugates or control were prepared in PBS solution. 100 μL/well of serially diluted LDC conjugates or control was added to the cells in the plate and incubated for 15-30 min at 37° C., 5% CO2. The culture medium in the wells was then removed by aspiration and the cells were incubated in fresh culture medium without conjugates (150 μL/well) for 2-3 days at 37° C., 5% CO2.
(§10) 4) CellTiter 96® Aqueous One Solution Cell Proliferation Assay (Promega) was added to each well to measure the amount of […] cells, and the plate was incubated in an incubator for 1 h at 37° C., 5% CO2.
(§11) 5) the plate was read at 490 nm on a microplate reader, and the cell survivals were compared for cells with or without the treatment of LDC conjugates. The LDC drug concentrations that are required for 50% cell death (IC50 values) were determined.

The test system of data set [10] is human lung cancer cell H460. Briefly: Cytotoxicity test of conjugate LDC10H. Type of data set: cell-based. The note with it: H460, incubated 15-30 min, then 2-3 days. The procedure: as §1, §7, §8, §9, §10, §11

The structures appear in SMILES notation. Square brackets hold non-standard residues; d marks the D form. Peptide text beside a SMILES is read from it. * marks the point of attachment. Dolaproine = CO[C@@H]([C@@H]1CCCN1)[C@@H](C)C(=O)O; Dil = CC[C@H](C)[C@H](NC)[C@@H](CC(=O)O)OC; X1 = C[C@@H](N*)[C@@H](O)c1ccccc1; NMeV = CN[C@H](C(=O)O)C(C)C

The IC50 is the concentration needed to halve the response being measured. Read a high IC50 as weaker potency in that assay.

As for `CC[C@H](C)[C@@H]([C@@H](CC(=O)N1CCC[C@H]1[C@H](OC)[C@@H](C)C(=O)N[C@H](C)[C@@H](O)c1ccccc1)OC)N(C)C(=O)[C@@H](NC(=O)[C@@H](NC)C(C)C)C(C)C` [MMAE] (H-[NMeV]V[Dil][Dolaproine]-X1), the IC50 in data set [1] stood at 0.54 nM; in [2], 0.52 nM; in [3] it was 0.68 nM; in [4] it was 0.86 nM; in data set [5], 0.77 nM; in data set [6], 89 nM. The half-maximal inhibitory concentration (IC50) in the data set on melanoma cell line A375 was 100 nM; in data set [7], 0.45 nM; in data set [8] it was 0.62 nM; in data set [9], 0.71 nM; in data set [10], 0.56 nM.

The values are drawn from patent publication US11571480B2, “Multi-ligand drug conjugates and uses thereof” (priority 2015, dated 2023).
